System: Mitochondria-located protein genes
Assay: DNA chip mRNA expression in yeast, mitochondria-located protein genes (Table 2)
Assay type: cell-based, Saccharomyces cerevisiae S288C
Details: cells incubated two hours with the chemical substance
Outline: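 Value is the scanned fluorescence intensity ratio of exposed versus chemical-free cells. Log-phase S288C yeast in YPD at 25° C. received one toxic substance for two hours, dosed to slow growth without killing; Cy3/Cy5-labeled cDNA from oligo-dT-purified mRNA was hybridized to a whole-genome chip at 65° C.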

`CCCCCCCCCCCCc1ccc(S(=O)(=O)[O-])cc1.[Na+]` [(17), sodium dodecylbenzosulfonate] was tested, and the “The level of expressed mRNA in the presence of chemical substance/The level of expressed mRNA in the absence of chemical substance” value (yeast gene YAL039C) was 1.4, the “The level of expressed mRNA in the presence of chemical substance/The level of expressed mRNA in the absence of chemical substance” value (yeast gene YBL022C) was 0.9 and the “The level of expressed mRNA in the presence of chemical substance/The level of expressed mRNA in the absence of chemical substance” value (yeast gene YBL030C) was 1.0. For the same compound, the “The level of expressed mRNA in the presence of chemical substance/The level of expressed mRNA in the absence of chemical substance” value (yeast gene YBL038W) was 1.2, the “The level of expressed mRNA in the presence of chemical substance/The level of expressed mRNA in the absence of chemical substance” value (yeast gene YBL099W) was 0.7 and the “The level of expressed mRNA in the presence of chemical substance/The level of expressed mRNA in the absence of chemical substance” value (yeast gene YBR003W) was 1.1. For the same compound, the “The level of expressed mRNA in the presence of chemical substance/The level of expressed mRNA in the absence of chemical substance” value (yeast gene YBR044C) was 0.9, the “The level of expressed mRNA in the presence of chemical substance/The level of expressed mRNA in the absence of chemical substance” value (yeast gene YBR091C) was 1.0 and the “The level of expressed mRNA in the presence of chemical substance/The level of expressed mRNA in the absence of chemical substance” value (yeast gene YBR122C) was 0.9. The “The level of expressed mRNA in the presence of chemical substance/The level of expressed mRNA in the absence of chemical substance” value (yeast gene YBR185C) was 0.8, the “The level of expressed mRNA in the presence of chemical substance/The level of expressed mRNA in the absence of chemical substance” value (yeast gene YBR221C) was 0.9 and the “The level of expressed mRNA in the presence of chemical substance/The level of expressed mRNA in the absence of chemical substance” value (yeast gene YBR251W) was 0.9. The “The level of expressed mRNA in the presence of chemical substance/The level of expressed mRNA in the absence of chemical substance” value (yeast gene YBR282W) was 0.9, the “The level of expressed mRNA in the presence of chemical substance/The level of expressed mRNA in the absence of chemical substance” value (yeast gene YCL057W) was 0.9 and the “The level of expressed mRNA in the presence of chemical substance/The level of expressed mRNA in the absence of chemical substance” value (yeast gene YCR046C) was 1.3. The “The level of expressed mRNA in the presence of chemical substance/The level of expressed mRNA in the absence of chemical substance” value (yeast gene YCR083W) was 1.3, the “The level of expressed mRNA in the presence of chemical substance/The level of expressed mRNA in the absence of chemical substance” value (yeast gene YDL067C) was 1.2 and the “The level of expressed mRNA in the presence of chemical substance/The level of expressed mRNA in the absence of chemical substance” value (yeast gene YDL181W) was 1.5. The “The level of expressed mRNA in the presence of chemical substance/The level of expressed mRNA in the absence of chemical substance” value (yeast gene YDL198C) was 1.5, the “The level of expressed mRNA in the presence of chemical substance/The level of expressed mRNA in the absence of chemical substance” value (yeast gene YDR079W) was 1.1 and the “The level of expressed mRNA in the presence of chemical substance/The level of expressed mRNA in the absence of chemical substance” value (yeast gene YDR178W) was 1.2. For the same compound, the “The level of expressed mRNA in the presence of chemical substance/The level of expressed mRNA in the absence of chemical substance” value (yeast gene YDR231C) was 1.2, the “The level of expressed mRNA in the presence of chemical substance/The level of expressed mRNA in the absence of chemical substance” value (yeast gene YDR258C) was 1.3 and the “The level of expressed mRNA in the presence of chemical substance/The level of expressed mRNA in the absence of chemical substance” value (yeast gene YDR298C) was 1.1. For the same compound, the “The level of expressed mRNA in the presence of chemical substance/The level of expressed mRNA in the absence of chemical substance” value (yeast gene YDR347W) was 0.9, the “The level of expressed mRNA in the presence of chemical substance/The level of expressed mRNA in the absence of chemical substance” value (yeast gene YDR377W) was 1.2 and the “The level of expressed mRNA in the presence of chemical substance/The level of expressed mRNA in the absence of chemical substance” value (yeast gene YDR529C) was 1.0. For the same compound, the “The level of expressed mRNA in the presence of chemical substance/The level of expressed mRNA in the absence of chemical substance” value (yeast gene YEL024W) was 1.1, the “The level of expressed mRNA in the presence of chemical substance/The level of expressed mRNA in the absence of chemical substance” value (yeast gene YEL039C) was 0.7 and the “The level of expressed mRNA in the presence of chemical substance/The level of expressed mRNA in the absence of chemical substance” value (yeast gene YER178W) was 1.1. For the same compound, the “The level of expressed mRNA in the presence of chemical substance/The level of expressed mRNA in the absence of chemical substance” value (yeast gene YFL016C) was 1.2, the “The level of expressed mRNA in the presence of chemical substance/The level of expressed mRNA in the absence of chemical substance” value (yeast gene YGL018C) was 0.8 and the “The level of expressed mRNA in the presence of chemical substance/The level of expressed mRNA in the absence of chemical substance” value (yeast gene YGL187C) was 0.9. The “The level of expressed mRNA in the presence of chemical substance/The level of expressed mRNA in the absence of chemical substance” value (yeast gene YGL191W) was 1.2, the “The level of expressed mRNA in the presence of chemical substance/The level of expressed mRNA in the absence of chemical substance” value (yeast gene YGR008C) was 1.7 and the “The level of expressed mRNA in the presence of chemical substance/The level of expressed mRNA in the absence of chemical substance” value (yeast gene YGR028W) was 1.5. For the same compound, the “The level of expressed mRNA in the presence of chemical substance/The level of expressed mRNA in the absence of chemical substance” value (yeast gene YGR062C) was 0.9, the “The level of expressed mRNA in the presence of chemical substance/The level of expressed mRNA in the absence of chemical substance” value (yeast gene YGR076C) was 0.9 and the “The level of expressed mRNA in the presence of chemical substance/The level of expressed mRNA in the absence of chemical substance” value (yeast gene YGR082W) was 0.9. The “The level of expressed mRNA in the presence of chemical substance/The level of expressed mRNA in the absence of chemical substance” value (yeast gene YGR174C) was 1.3, the “The level of expressed mRNA in the presence of chemical substance/The level of expressed mRNA in the absence of chemical substance” value (yeast gene YGR244C) was 1.9 and the “The level of expressed mRNA in the presence of chemical substance/The level of expressed mRNA in the absence of chemical substance” value (yeast gene YHR008C) was 0.9. The “The level of expressed mRNA in the presence of chemical substance/The level of expressed mRNA in the absence of chemical substance” value (yeast gene YIL155C) was 1.1, the “The level of expressed mRNA in the presence of chemical substance/The level of expressed mRNA in the absence of chemical substance” value (yeast gene YJL096W) was 1.1 and the “The level of expressed mRNA in the presence of chemical substance/The level of expressed mRNA in the absence of chemical substance” value (yeast gene YJL102W) was 1.0. For the same compound, the “The level of expressed mRNA in the presence of chemical substance/The level of expressed mRNA in the absence of chemical substance” value (yeast gene YJL133W) was 0.8, the “The level of expressed mRNA in the presence of chemical substance/The level of expressed mRNA in the absence of chemical substance” value (yeast gene YJL166W) was 1.7 and the “The level of expressed mRNA in the presence of chemical substance/The level of expressed mRNA in the absence of chemical substance” value (yeast gene YJL180C) was 0.9. The “The level of expressed mRNA in the presence of chemical substance/The level of expressed mRNA in the absence of chemical substance” value (yeast gene YJR045C) was 0.7 and the “The level of expressed mRNA in the presence of chemical substance/The level of expressed mRNA in the absence of chemical substance” value (yeast gene YJR077C) was 1.0.

Source: patent publication US8192962B2, “Processes for detecting toxic substances” (Daikin Industries, Ltd., priority 2001, dated 2012)
